From PubChem BioAssay (NCI)
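How tested: cells in 96-well plates exposed to compound for 48 hours at five concentrations. The concentration for 50% growth inhibition is given as GI50. TGI marks complete inhibition of growth.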

Legend:
Experiment in all cases: growth of human tumour cells (NCI), 48 h
CCRF-CEM leukemia = test system: CCRF-CEM leukemia
EKVX NSCLC = test system: EKVX NSCLC
HCT-116 colon = test system: HCT-116 colon
UO-31 renal = test system: UO-31 renal
HT29 colon = test system: HT29 colon
M14 melanoma = test system: M14 melanoma
HL-60(TB) leukemia = test system: HL-60(TB) leukemia
HS 578T breast = test system: HS 578T breast
RPMI-8226 leukemia = test system: RPMI-8226 leukemia
LOX IMVI melanoma = test system: LOX IMVI melanoma
PC-3 prostate = test system: PC-3 prostate
NCI-H23 lung = test system: NCI-H23 lung
BT-549 breast = test system: BT-549 breast
SN12C renal = test system: SN12C renal
SF-539 CNS = test system: SF-539 CNS
MDA-MB-468 breast = test system: MDA-MB-468 breast
SK-MEL-2 melanoma = test system: SK-MEL-2 melanoma
OVCAR-3 ovarian = test system: OVCAR-3 ovarian
OVCAR-5 ovarian = test system: OVCAR-5 ovarian
SK-MEL-28 melanoma = test system: SK-MEL-28 melanoma
SK-OV-3 ovarian = test system: SK-OV-3 ovarian
OVCAR-4 ovarian = test system: OVCAR-4 ovarian
A549 NSCLC = test system: A549 NSCLC
NCI-H226 lung = test system: NCI-H226 lung
SW-620 colon = test system: SW-620 colon
HCC-2998 colon = test system: HCC-2998 colon
T-47D breast = test system: T-47D breast
A498 renal = test system: A498 renal
MOLT-4 leukemia = test system: MOLT-4 leukemia
HCT-15 colon = test system: HCT-15 colon
SNB-19 CNS = test system: SNB-19 CNS
HOP-92 NSCLC = test system: HOP-92 NSCLC
KM12 colon = test system: KM12 colon
U251 CNS = test system: U251 CNS
MALME-3M melanoma = test system: MALME-3M melanoma
ACHN renal = test system: ACHN renal
DU-145 prostate = test system: DU-145 prostate
K-562 leukemia = test system: K-562 leukemia
SF-295 CNS = test system: SF-295 CNS
SK-MEL-5 melanoma = test system: SK-MEL-5 melanoma
SF-268 CNS = test system: SF-268 CNS
MDA-MB-435 = test system: MDA-MB-435
MDA-MB-231 breast = test system: MDA-MB-231 breast
HOP-62 NSCLC = test system: HOP-62 NSCLC
CAKI-1 renal = test system: CAKI-1 renal
UACC-257 melanoma = test system: UACC-257 melanoma
NCI-H460 lung = test system: NCI-H460 lung
UACC-62 melanoma = test system: UACC-62 melanoma
RXF 393 renal = test system: RXF 393 renal
SNB-75 CNS = test system: SNB-75 CNS
COLO 205 colon = test system: COLO 205 colon
SR leukemia = test system: SR leukemia
TK-10 renal = test system: TK-10 renal
NCI-H522 lung = test system: NCI-H522 lung
MCF7 breast = test system: MCF7 breast
IGROV1 ovarian = test system: IGROV1 ovarian
786-0 renal = test system: 786-0 renal
OVCAR-8 ovarian = test system: OVCAR-8 ovarian

In the case of `O=C(/C=C/c1ccc(Br)cc1)c1nc2ccccc2n1Cc1ccc(Br)cc1`, the GI50 (CCRF-CEM leukemia) is reported as 18.2 µM, the TGI (CCRF-CEM leukemia) is reported as > 100 µM and the GI50 (EKVX NSCLC) is reported as > 100 µM. The TGI (EKVX NSCLC) was > 100 µM, the GI50 (HCT-116 colon) was 56.6 µM and the TGI (HCT-116 colon) was > 100 µM. For the same compound, the GI50 (UO-31 renal) was 45.9 µM, the TGI (UO-31 renal) was > 100 µM and the GI50 (HT29 colon) was 68.7 µM. The TGI (HT29 colon) was > 100 µM, the GI50 (M14 melanoma) was > 100 µM and the TGI (M14 melanoma) was > 100 µM. For the same compound, the GI50 (HL-60(TB) leukemia) was 24.1 µM, the TGI (HL-60(TB) leukemia) was > 100 µM and the GI50 (HS 578T breast) was > 100 µM. The TGI (HS 578T breast) was > 100 µM, the GI50 (RPMI-8226 leukemia) was 25.2 µM and the TGI (RPMI-8226 leukemia) was > 100 µM. For the same compound, the GI50 (LOX IMVI melanoma) was 30.9 µM, the TGI (LOX IMVI melanoma) was > 100 µM and the GI50 (PC-3 prostate) was 58.6 µM. For the same compound, the TGI (PC-3 prostate) was > 100 µM, the GI50 (NCI-H23 lung) was > 100 µM and the TGI (NCI-H23 lung) was > 100 µM. The GI50 (BT-549 breast) was 96 µM, the TGI (BT-549 breast) was > 100 µM and the GI50 (SN12C renal) was > 100 µM. The TGI (SN12C renal) was > 100 µM, the GI50 (SF-539 CNS) was > 100 µM and the TGI (SF-539 CNS) was > 100 µM. For the same compound, the GI50 (MDA-MB-468 breast) was 35.9 µM, the TGI (MDA-MB-468 breast) was > 100 µM and the GI50 (SK-MEL-2 melanoma) was > 100 µM. For the same compound, the TGI (SK-MEL-2 melanoma) was > 100 µM, the GI50 (OVCAR-3 ovarian) was 35 µM and the TGI (OVCAR-3 ovarian) was > 100 µM. For the same compound, the GI50 (OVCAR-5 ovarian) was > 100 µM, the TGI (OVCAR-5 ovarian) was > 100 µM and the GI50 (SK-MEL-28 melanoma) was > 100 µM. For the same compound, the TGI (SK-MEL-28 melanoma) was > 100 µM, the GI50 (SK-OV-3 ovarian) was > 100 µM and the TGI (SK-OV-3 ovarian) was > 100 µM. For the same compound, the GI50 (OVCAR-4 ovarian) was > 100 µM, the TGI (OVCAR-4 ovarian) was > 100 µM and the GI50 (A549 NSCLC) was > 100 µM. The TGI (A549 NSCLC) was > 100 µM, the GI50 (NCI-H226 lung) was > 100 µM and the TGI (NCI-H226 lung) was > 100 µM. The GI50 (SW-620 colon) was 30 µM, the TGI (SW-620 colon) was > 100 µM and the GI50 (HCC-2998 colon) was > 100 µM. The TGI (HCC-2998 colon) was > 100 µM, the GI50 (T-47D breast) was 24.7 µM and the TGI (T-47D breast) was > 100 µM. The GI50 (A498 renal) was > 100 µM, the TGI (A498 renal) was > 100 µM and the GI50 (MOLT-4 leukemia) was 17 µM. The TGI (MOLT-4 leukemia) was > 100 µM, the GI50 (HCT-15 colon) was 40.5 µM and the TGI (HCT-15 colon) was > 100 µM. For the same compound, the GI50 (SNB-19 CNS) was > 100 µM, the TGI (SNB-19 CNS) was > 100 µM and the GI50 (HOP-92 NSCLC) was 58.6 µM. For the same compound, the TGI (HOP-92 NSCLC) was > 100 µM, the GI50 (KM12 colon) was 80.5 µM and the TGI (KM12 colon) was > 100 µM. For the same compound, the GI50 (U251 CNS) was 42.6 µM, the TGI (U251 CNS) was > 100 µM and the GI50 (MALME-3M melanoma) was > 100 µM. The TGI (MALME-3M melanoma) was > 100 µM, the GI50 (ACHN renal) was > 100 µM and the TGI (ACHN renal) was > 100 µM. For the same compound, the GI50 (DU-145 prostate) was > 100 µM, the TGI (DU-145 prostate) was > 100 µM and the GI50 (K-562 leukemia) was 39.5 µM. The TGI (K-562 leukemia) was > 100 µM, the GI50 (SF-295 CNS) was > 100 µM and the TGI (SF-295 CNS) was > 100 µM. For the same compound, the GI50 (SK-MEL-5 melanoma) was > 100 µM, the TGI (SK-MEL-5 melanoma) was > 100 µM and the GI50 (SF-268 CNS) was > 100 µM. The TGI (SF-268 CNS) was > 100 µM, the GI50 (MDA-MB-435) was 35.6 µM and the TGI (MDA-MB-435) was > 100 µM. The GI50 (MDA-MB-231 breast) was 99.1 µM, the TGI (MDA-MB-231 breast) was > 100 µM and the GI50 (HOP-62 NSCLC) was > 100 µM. For the same compound, the TGI (HOP-62 NSCLC) was > 100 µM, the GI50 (CAKI-1 renal) was 53 µM and the TGI (CAKI-1 renal) was > 100 µM. The GI50 (UACC-257 melanoma) was > 100 µM, the TGI (UACC-257 melanoma) was > 100 µM and the GI50 (NCI-H460 lung) was 59.3 µM. For the same compound, the TGI (NCI-H460 lung) was > 100 µM, the GI50 (UACC-62 melanoma) was > 100 µM and the TGI (UACC-62 melanoma) was > 100 µM. The GI50 (RXF 393 renal) was 86.9 µM, the TGI (RXF 393 renal) was > 100 µM and the GI50 (SNB-75 CNS) was > 100 µM. The TGI (SNB-75 CNS) was > 100 µM, the GI50 (COLO 205 colon) was > 100 µM and the TGI (COLO 205 colon) was > 100 µM. The GI50 (SR leukemia) was 28 µM, the TGI (SR leukemia) was > 100 µM and the GI50 (TK-10 renal) was > 100 µM. For the same compound, the TGI (TK-10 renal) was > 100 µM, the GI50 (NCI-H522 lung) was > 100 µM and the TGI (NCI-H522 lung) was > 100 µM. For the same compound, the GI50 (MCF7 breast) was 24.1 µM, the TGI (MCF7 breast) was > 100 µM and the GI50 (IGROV1 ovarian) was > 100 µM. For the same compound, the TGI (IGROV1 ovarian) was > 100 µM, the GI50 (786-0 renal) was > 100 µM and the TGI (786-0 renal) was > 100 µM. The GI50 (OVCAR-8 ovarian) was 97.7 µM and the TGI (OVCAR-8 ovarian) was > 100 µM.
